Data from the NIST ThermoML archive (doi:10.1016/j.jct.2017.01.016).

Assay: xn = mol fraction of the nth substance listed
Details: 101 kPa, Liquid; for viscosity: Capillary tube (Ostwald / Ubbelohde) method; for speed of sound: Frequency=3 MHz, Linear variable-path acoustic interferometer

Cc1cc(C)cc(C)c1 [1,3,5-trimethylbenzene] + C1COCCO1
Details | speed of sound, 308.15 K [m/s] | speed of sound, 313.15 K [m/s] | speed of sound, 318.15 K [m/s] | viscosity, 308.15 K [mPa·s] | viscosity, 313.15 K [mPa·s] | viscosity, 318.15 K [mPa·s]
x2 = 0 | 1300.2 | 1280.4 | 1263 | 0.5792 | 0.5422 | 0.5066
x2 = 0.0696 | 1294 | 1274.3 | 1256.9 | 0.5994 | 0.5609 | 0.5246
x2 = 0.1408 | 1287.9 | 1268.3 | 1250.8 | 0.6212 | 0.5813 | 0.5436
x2 = 0.2098 | 1282.6 | 1262.9 | 1245.3 | 0.6438 | 0.6022 | 0.5634
x2 = 0.28 | 1277.6 | 1258 | 1240.3 | 0.6685 | 0.6248 | 0.5846
x2 = 0.3558 | 1273 | 1253.3 | 1235.4 | 0.6966 | 0.651 | 0.6092
x2 = 0.4276 | 1269.2 | 1249.6 | 1231.5 | 0.7253 | 0.6774 | 0.6342
x2 = 0.5066 | 1266.3 | 1246.4 | 1228.3 | 0.7589 | 0.7084 | 0.6632
x2 = 0.5801 | 1264.6 | 1244.7 | 1226.4 | 0.7918 | 0.7391 | 0.692
x2 = 0.6548 | 1264.7 | 1244.6 | 1226 | 0.8274 | 0.7717 | 0.7224
x2 = 0.7227 | 1266.2 | 1246.1 | 1227.1 | 0.8612 | 0.8032 | 0.7515
x2 = 0.7936 | 1270 | 1249.9 | 1230.5 | 0.8982 | 0.8372 | 0.7836
x2 = 0.8663 | 1277 | 1256.5 | 1236.7 | 0.9376 | 0.874 | 0.8178
x2 = 0.9319 | 1286.7 | 1265.7 | 1245.3 | 0.9752 | 0.9088 | 0.8501
